{"source": "patent US20250090875A9", "about": "“IMMUNOSTIMULATORY COMPOUNDS AND CONJUGATES” (Seagen Inc., priority 2021, published 2025)", "key": {"[1]": {"test_system": "CT26 tumors", "format": "in vivo", "settings": "targeted ADC, intraperitoneal, every 7 days, 3 doses; for mice surviving at the end of the study: 6 mice per group", "description": "This example covers in vivo assessments of anti-tumor activity of ADCs with TLR7/8 agonists. An in vivo syngeneic system was used to assess the ability of the ADCs having TLR ⅞ agonists as the payload to induce immune responses and drive an anti-tumor immune response using a subcutaneous, heterotopic mouse colon carcinoma model (a CT26 system). Female Balb/c mice were implanted with 1×10^5 CT26 cells sub-cutaneously in the flank on day 0. When mean tumor size of 100 mm^3 (measured using the formula: Volume (mm^3)=0.5*Length*Width^2 where length is the longer dimension) was reached, the mice were randomized into treatment groups of 6 mice per group. Animals were then treated intraperitoneally with the indicated treatment every 7 days, for 3 doses total. Stock concentrations of the ADCs were diluted to the appropriate concentration and injected into animals in 100 μL volumes. Tumor length and width and mouse weights were measured throughout the study and tumor volume was calculated using the formula above. Animals were followed until tumor volume reached 1000 mm^3, when animals were then euthanized."}, "[2]": {"test_system": "Renca tumors", "assay": "Renca kidney carcinoma model in Balb/c mice", "format": "in vivo, mouse", "settings": "targeted or non-targeted conjugates, N1 vs C4 linkage, different linkers, with or without PEG", "experimental": "The difference in anti-tumor activity of the S18a and S18b conjugates was also assessed in the Renca kidney model. In this model, mice bearing Renca tumors were treated q7dx3 when tumors reached ˜100 mm^3 as indicated, and followed for mean group tumor growth (FIG. 14, top) and survival (FIG. 14, bottom) over time.\nThis example covers cancer treatment with EphA2 targeted TLR agonists. […] Balb/c mice were implanted with Renca tumor cells and when cells reached 100 mm^3 they were treated Q7dx3 treatments with 2.4 mg/kg of the indicated IDC, either non targeting isotype or an EphA2 targeting mAb."}, "[3]": {"test_system": "primary human PBMCs", "assay": "Cytokine induction in primary human PBMCs by small molecule TLR7/8 agonists (Luminex)", "format": "cell-based", "settings": "for potency and activity of cytokine induction (IL6, TNFα, MCP1, IP10): ranking; for potency to activate human PBMCs (IL6, IL1b, MIP1b, TNFα): compared with S18a, FIG. 29", "experimental": "This example covers dose dependent human immune cell activation by small molecule TLR7/8 agonists. Primary human PBMCs were isolated from peripheral whole blood from human donors and were subjected to treatment with increasing concentrations of the agonists diluted in PBS. Cell culture supernatants were harvested 24 h after treatment and analyzed for induction of cytokines via multiplex ELISAs (Luminex).\nSeveral small molecule TLR7/8 agonists were assessed for their ability to activate human immune cells in a dose dependent manner. Primary human PBMCs were isolated from peripheral whole blood from human donors and were subjected to treatment with increasing concentrations of the agonists diluted in PBS. 24 h after treatment cell culture supernatants were harvested and analyzed for induction of cytokines via multiplex ELISAs (Luminex)."}, "[4]": {"biological_target": "T1, hTLR7 (Homo sapiens, UniProt Q9NYK1)", "T1 construct": "expressed in transfected cells; host or cells: HEK Blue hTLR7 cells", "T1 sequence (Q9NYK1 27-1049)": "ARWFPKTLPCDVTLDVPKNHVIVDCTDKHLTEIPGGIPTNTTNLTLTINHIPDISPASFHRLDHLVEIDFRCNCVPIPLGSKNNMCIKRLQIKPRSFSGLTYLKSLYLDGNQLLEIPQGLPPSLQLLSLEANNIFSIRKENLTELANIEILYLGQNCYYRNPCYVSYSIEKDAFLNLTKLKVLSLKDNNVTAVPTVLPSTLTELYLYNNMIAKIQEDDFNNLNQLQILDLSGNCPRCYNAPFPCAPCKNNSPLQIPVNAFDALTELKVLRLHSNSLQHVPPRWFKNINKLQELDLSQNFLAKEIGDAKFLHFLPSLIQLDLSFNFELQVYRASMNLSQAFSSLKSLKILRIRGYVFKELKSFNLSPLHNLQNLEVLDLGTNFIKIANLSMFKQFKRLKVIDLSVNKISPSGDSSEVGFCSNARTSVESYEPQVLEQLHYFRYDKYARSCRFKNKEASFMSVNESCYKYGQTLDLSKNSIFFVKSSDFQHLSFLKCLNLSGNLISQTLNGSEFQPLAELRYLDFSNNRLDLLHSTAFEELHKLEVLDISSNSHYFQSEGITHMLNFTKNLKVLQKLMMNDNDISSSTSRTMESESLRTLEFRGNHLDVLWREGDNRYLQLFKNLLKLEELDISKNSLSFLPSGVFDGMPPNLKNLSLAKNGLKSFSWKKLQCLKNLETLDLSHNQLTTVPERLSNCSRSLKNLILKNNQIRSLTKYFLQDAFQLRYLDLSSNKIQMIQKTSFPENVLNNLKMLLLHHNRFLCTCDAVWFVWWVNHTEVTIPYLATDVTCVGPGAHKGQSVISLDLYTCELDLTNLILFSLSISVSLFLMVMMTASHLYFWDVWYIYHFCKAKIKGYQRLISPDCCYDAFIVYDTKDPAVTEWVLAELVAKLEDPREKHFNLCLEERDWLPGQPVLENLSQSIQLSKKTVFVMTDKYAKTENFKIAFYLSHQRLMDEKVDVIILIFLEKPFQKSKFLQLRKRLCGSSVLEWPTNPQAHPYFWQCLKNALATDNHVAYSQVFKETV", "assay": "HEK Blue hTLR7 cell assay of free TLR7/8 agonists", "format": "cell-based", "settings": "HEK Blue hTLR7 cells, free agonist", "experimental": "This example covers toll-like receptor 7 (TLR7) and toll-like receptor 8 (TLR8) selectivity of imidazoquinoline agonists. Assessment of TLR7 and TLR8 selectivity for the free TLR7/8 agonists was performed using HEK Blue hTLR7 and hTLR8 cells over a large dose range of compounds. […] Activities were determined based on calculated EC50 (in μM) in each cell line, and are summarized in TABLE 4 below, with columns providing targets and rows providing compounds."}}, "note": "Entries after “also recorded” stand apart in the source; their conditions may differ."}
{"smiles": "CCCCc1nc2c(N)nc3cc(C(=O)OC)ccc3c2n1Cc1ccc(CNC(=O)OCc2ccc(O[C@H]3O[C@H](CO)[C@@H](O)[C@H](O)[C@@H]3O)c(NC(=O)CCNC(=O)[C@H](CCCCNC(=O)CCOCCOCCOCCOCCOCCOCCOCCOCCOCCOCCOCCOC)NC(=O)CCN3C(=O)C=CC3=O)c2)cc1", "note": "[Compound 4, methyl 4-amino-2-butyl-1-(4-(((((3-((S)-44-(3-(2,5-dioxo-2,5-dihydro-1H-pyrrol-1-yl)propanamido)-38,45-dioxo-2,5,8,11,14,17,20,23,26,29,32,35-dodecaoxa-39,46-diazanonatetracontan-49-amido)-4-(((2R,3 S,4 S, 5 S,6R)-3,4,5-trihydroxy-6-(hydroxymethyl)tetrahydro-2H-pyran-2-yl)oxy)benzyl)oxy)carbonyl)amino)methyl)benzyl)-1H-imidazo[4,5-c]quinoline-7-carboxylate]", "values": [{"measurement": "tumor growth delay and survival", "setting": "[1]", "result": "some tumor growth delay and survival benefit"}, {"measurement": "mice surviving at the end of the study", "setting": "[1]", "result": "⅙"}]}
{"smiles": "CCCCc1nc2c(N)nc3cc(C(=O)OC)ccc3c2n1CCCCCNC(=O)OCc1ccc(O[C@H]2O[C@H](CO)[C@@H](O)[C@H](O)[C@@H]2O)c(NC(=O)CCNC(=O)[C@H](CCCCNC(=O)CCOCCOCCOCCOCCOCCOCCOCCOCCOCCOCCOCCOC)NC(=O)CCN2C(=O)C=CC2=O)c1", "note": "[Compound 7, Methyl 4-amino-2-butyl-1-(5-((((3-((S)-44-(3-(2,5-dioxo-2,5-dihydro-1H-pyrrol-1-yl)propanamido)-38,45-dioxo-2,5,8,11,14,17,20,23,26,29,32,35-dodecaoxa-39,46-diazanonatetracontan-49-amido)-4-(((2R,3 S,4 S, 5 S,6R)-3,4,5-trihydroxy-6-(hydroxymethyl)tetrahydro-2H-pyran-2-yl)oxy)benzyl)oxy)carbonyl)amino)pentyl)-1H-imidazo[4,5-c]quinoline-7-carboxylate]", "values": [{"measurement": "tumor growth delay and survival", "setting": "[1]", "result": "some tumor growth delay over the untreated group"}, {"measurement": "mice surviving at the end of the study", "setting": "[1]", "result": "no animals ultimately survived"}]}
{"smiles": "CCCCc1nc2c(N)nc3cc(C(=O)O)ccc3c2n1CCCCCNC(=O)OCc1ccc(O[C@H]2O[C@H](CO)[C@@H](O)[C@H](O)[C@@H]2O)c(NC(=O)CCNC(=O)[C@H](CCCCNC(=O)CCOCCOCCOCCOCCOCCOCCOCCOCCOCCOCCOCCOC)NC(=O)CCN2C(=O)C=CC2=O)c1", "note": "[Compound 8, 4-amino-2-butyl-1-(5-((((3-((S)-44-(3-(2,5-dioxo-2,5-dihydro-1H-pyrrol-1-yl)propanamido)-38,45-dioxo-2,5,8,11,14,17,20,23,26,29,32,35-dodecaoxa-39,46-diazanonatetracontan-49-amido)-4-(((2R,3 S,4 S, 5 S,6R)-3,4,5-trihydroxy-6-(hydroxymethyl)tetrahydro-2H-pyran-2-yl)oxy)benzyl)oxy)carbonyl)amino)pentyl)-1H-imidazo[4,5-c]quinoline-7-carboxylic acid]", "values": [{"measurement": "tumor growth delay and survival", "setting": "[1]", "result": "greatly increased tumor growth delay and survival"}]}
{"smiles": "CCCCc1nc2c(N)nc3cc(C(=O)O)ccc3c2n1Cc1ccc(C[N+](C)(C)Cc2ccc(O[C@H]3O[C@H](CO)[C@@H](O)[C@H](O)[C@@H]3O)c(NC(=O)CCNC(=O)[C@H](CCCCNC(=O)CCOCCOCCOCCOCCOCCOCCOCCOCCOCCOCCOCCOC)NC(=O)CCN3C(=O)C=CC3=O)c2)cc1", "note": "[Compound 9, N-(4-((4-amino-2-butyl-7-carboxy-1H-imidazo[4,5-c]quinolin-1-yl)methyl)benzyl)-1-(3-((S)-44-(3-(2,5-dioxo-2,5-dihydro-1H-pyrrol-1-yl)propanamido)-38,45-dioxo-2,5,8,11,14,17,20,23,26,29,32,35-dodecaoxa-39,46-diazanonatetracontan-49-amido)-4-(((2R,3 S,4 S, 5 S,6R)-3,4,5-trihydroxy-6-(hydroxymethyl)tetrahydro-2H-pyran-2-yl)oxy)phenyl)-N,N-dimethylmethanaminium]", "values": [{"measurement": "tumor growth delay and survival", "setting": "[1]", "result": "potent tumor growth delay and a long-term overall survival benefit"}, {"measurement": "anti-tumor activity (tumor volume, survival)", "setting": "[2]", "result": "greatest potency; also recorded: superior potency"}]}
{"smiles": "CCCCc1nc2c(N)nc3cc(C(=O)O)ccc3c2n1Cc1ccc(C[N+](C)(C)Cc2ccc(O[C@H]3O[C@H](CO)[C@@H](O)[C@H](O)[C@@H]3O)c(NC(=O)CCNC(=O)CCN3C(=O)C=CC3=O)c2)cc1", "note": "[Compound 14, N-(4-((4-amino-2-butyl-7-carboxy-1H-imidazo[4,5-c]quinolin-1-yl)methyl)benzyl)-1-(3-(3-(3-(2,5-dioxo-2,5-dihydro-1H-pyrrol-1-yl)propanamido)propanamido)-4-(((2R,3S,4S,5S,6R)-3,4,5-trihydroxy-6-(hydroxymethyl)tetrahydro-2H-pyran-2-yl)oxy)phenyl)-N,N-dimethylmethanaminium]", "values": [{"measurement": "anti-tumor activity (tumor volume, survival)", "setting": "[2]", "result": "greatest potency"}]}
{"smiles": "CCCCc1nc2c(N)nc3cc(C(=O)O)ccc3c2n1CC(C)O", "note": "(centres unmarked) [S5b]", "values": [{"measurement": "IFNα, IL1β, MIP1β, TNFα induction, C7 carboxylic acid vs parent C7 methyl ester", "setting": "[3]; free drug, FIG. 3", "result": "markedly lower potency and activity than its corresponding parent methyl ester compound"}]}
{"smiles": "CCCCc1nc2c(N)nc3cc(C(=O)OC)ccc3c2n1Cc1ccc(CN)cc1", "note": "[S8a]", "values": [{"measurement": "concentration eliciting cytokine responses (IFNg, IL1β, MIP1β, TNFα)", "setting": "[3]; single donor, 24 h, FIG. 1", "result": "< 0.1", "unit": "µM"}]}
{"smiles": "CCCCc1nc2c(N)nc3cc(C(=O)OC)ccc3c2n1Cc1ccc(CN2CCCC2)cc1", "note": "[S65a]", "values": [{"measurement": "potency to induce MCP1 and IP10", "setting": "[3]; free drug, FIG. 30", "result": "enhanced potency to induce MCP1 and IP10 compared to compounds S18a"}, {"measurement": "potency and activity of cytokine induction (IL6, TNFα, MCP1, IP10)", "setting": "[3]; free drug, FIG. 30", "result": "other two most potent compounds"}]}
{"smiles": "CCCCc1nc2c(N)nc3cc(C(=O)OC)ccc3c2n1CCc1ccc(CN)cc1", "note": "[S76a]", "values": [{"measurement": "EC50", "setting": "[4]", "result": 3.44, "unit": "µM"}]}
{"smiles": "CCCCc1nc2c(N)nc3cc(C(=O)OC)ccc3c2n1CCCCCN(C)C", "note": "[S77a]", "values": [{"measurement": "EC50", "setting": "[4]", "result": 2.82, "unit": "µM"}]}
{"smiles": "COCCc1nc2c(N)nc3cc(C(=O)OC)ccc3c2n1Cc1ccc(CN)cc1", "note": "[S78a]", "values": [{"measurement": "EC50", "setting": "[4]", "result": 3.78, "unit": "µM"}]}
{"smiles": "CCCCc1nc2c(N)nc3cc(C(=O)OC)ccc3c2n1Cc1ccc(CN2CCOCC2)cc1", "note": "[S81a]", "values": [{"measurement": "maximal level of IL6, MCP1 and IP10", "setting": "[3]; free drug, FIG. 30", "result": "same maximal level of IL6, MCP1 and IP10 as the other compounds"}, {"measurement": "maximum level of IL10, IL1b or TNFα", "setting": "[3]; free drug, FIG. 30", "result": "not able to reach the same maximum level"}, {"measurement": "potency and activity of cytokine induction (IL6, TNFα, MCP1, IP10)", "setting": "[3]; free drug, FIG. 30", "result": "greater activity than compound S82a"}, {"measurement": "TLR7 vs TLR8 binding profile", "setting": "[3]; inferred from the cytokine profile", "result": "TLR7 vs TLR8 skewed binding profile"}]}
{"smiles": "CCCCc1nc2c(N)nc3cc(C(=O)O)ccc3c2[nH]1", "note": "[S82b]", "values": [{"measurement": "potency and activity of cytokine induction (IL6, TNFα, MCP1, IP10)", "setting": "[3]; free drug, FIG. 30", "result": "greater activity than compound S84a"}]}
{"smiles": "CCCCc1nc2c(N)nc3cc(C(=O)OC)ccc3c2n1Cc1ccc(CN(CC)CC)cc1", "note": "[S83a]", "values": [{"measurement": "potency to activate human PBMCs (IL6, IL1b, MIP1b, TNFα)", "setting": "[3]; free drug", "result": "slightly enhanced potency"}, {"measurement": "potency and activity of cytokine induction (IL6, TNFα, MCP1, IP10)", "setting": "[3]; free drug, FIG. 30", "result": "highest maximal cytokine and potency to induce cytokine of all compounds tested"}]}
{"smiles": "CCCCc1nc2c(N)nc3cc(C(=O)OC)ccc3c2n1Cc1ccc(CN2CCCCC2)cc1", "note": "[S85a]", "values": [{"measurement": "potency to activate human PBMCs (IL6, IL1b, MIP1b, TNFα)", "setting": "[3]; free drug", "result": "slightly decreased potency"}]}
